According to US20140058103A1, “Inhibitors of PI3K-Delta and Methods of Their Use and Manufacture” (Exelixis, Inc., priority 2010, published 2014):

Target: PI3K delta (Homo sapiens, UniProt O00329)
Assay: Luciferase-coupled chemiluminescence kinase assay (ATP consumption, KinaseGlo)
Assay type: biochemical
Procedure, shortened: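 ATP consumption measured by KinaseGlo luciferase chemiluminescence after a 2 h reaction at ambient temperature, with ATP at or below the kinase KM. Ten inhibitor concentrations per curve; IC50 from four-parameter nonlinear regression.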

Sequence of PI3K delta (O00329 whole entry): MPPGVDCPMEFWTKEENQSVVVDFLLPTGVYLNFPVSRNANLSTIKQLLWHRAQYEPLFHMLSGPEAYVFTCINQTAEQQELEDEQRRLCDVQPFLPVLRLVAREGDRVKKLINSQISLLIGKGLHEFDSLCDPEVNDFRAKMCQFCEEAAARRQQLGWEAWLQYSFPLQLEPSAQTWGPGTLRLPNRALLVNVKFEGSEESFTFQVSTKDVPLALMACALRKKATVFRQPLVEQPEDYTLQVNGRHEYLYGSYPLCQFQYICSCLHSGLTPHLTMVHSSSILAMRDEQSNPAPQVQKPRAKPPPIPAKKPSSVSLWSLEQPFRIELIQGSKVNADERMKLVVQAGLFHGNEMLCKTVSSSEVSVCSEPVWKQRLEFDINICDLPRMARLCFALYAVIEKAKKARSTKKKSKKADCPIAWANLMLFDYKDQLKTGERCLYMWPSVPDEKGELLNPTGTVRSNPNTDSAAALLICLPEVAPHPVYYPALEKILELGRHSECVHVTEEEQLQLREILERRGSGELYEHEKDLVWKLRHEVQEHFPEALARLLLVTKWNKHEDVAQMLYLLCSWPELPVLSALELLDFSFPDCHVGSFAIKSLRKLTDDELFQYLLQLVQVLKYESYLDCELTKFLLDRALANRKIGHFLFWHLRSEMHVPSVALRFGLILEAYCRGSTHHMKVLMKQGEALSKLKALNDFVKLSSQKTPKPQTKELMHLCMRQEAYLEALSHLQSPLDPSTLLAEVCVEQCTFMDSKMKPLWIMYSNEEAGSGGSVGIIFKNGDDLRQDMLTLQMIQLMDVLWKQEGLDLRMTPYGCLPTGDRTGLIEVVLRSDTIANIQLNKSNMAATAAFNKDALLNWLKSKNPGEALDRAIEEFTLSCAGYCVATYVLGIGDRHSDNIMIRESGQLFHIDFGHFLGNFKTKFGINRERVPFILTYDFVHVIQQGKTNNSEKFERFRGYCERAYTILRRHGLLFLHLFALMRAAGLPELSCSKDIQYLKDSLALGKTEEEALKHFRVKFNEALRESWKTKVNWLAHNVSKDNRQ
Sequence of PI3K delta (P27986 whole entry partner): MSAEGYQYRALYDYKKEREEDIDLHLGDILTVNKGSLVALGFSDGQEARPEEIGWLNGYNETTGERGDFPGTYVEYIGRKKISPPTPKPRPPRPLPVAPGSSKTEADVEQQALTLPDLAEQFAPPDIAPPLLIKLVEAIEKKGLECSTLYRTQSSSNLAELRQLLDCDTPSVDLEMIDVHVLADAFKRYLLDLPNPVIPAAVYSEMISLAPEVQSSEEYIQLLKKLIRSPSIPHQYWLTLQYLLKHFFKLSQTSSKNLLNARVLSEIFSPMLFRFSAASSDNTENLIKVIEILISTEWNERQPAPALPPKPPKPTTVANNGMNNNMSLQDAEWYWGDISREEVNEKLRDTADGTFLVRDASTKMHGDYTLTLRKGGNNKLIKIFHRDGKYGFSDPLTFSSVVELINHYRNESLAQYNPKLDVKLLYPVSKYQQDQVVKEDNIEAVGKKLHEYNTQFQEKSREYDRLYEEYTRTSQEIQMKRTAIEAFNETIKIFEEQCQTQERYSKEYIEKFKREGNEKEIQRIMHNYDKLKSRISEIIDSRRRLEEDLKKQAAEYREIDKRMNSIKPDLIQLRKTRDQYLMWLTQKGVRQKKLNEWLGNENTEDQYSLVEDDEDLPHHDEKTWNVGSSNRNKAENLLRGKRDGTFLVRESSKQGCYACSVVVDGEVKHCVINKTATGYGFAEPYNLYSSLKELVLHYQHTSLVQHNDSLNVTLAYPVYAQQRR

Structure (SMILES)	IC50
CCn1c(-c2cnn(C)c2)nc2c(N3CCC(n4c(=O)[nH]c5ccccc54)CC3)ncnc21 [Compound 243, 1-{1-[9-ethyl-8-(1-methyl-1H-pyrazol-4-yl)-9H-purin-6-yl]piperidin-4-yl}-1,3-dihydro-2H-benzimidazol-2-one]	< 0.05 µM
CCn1c(-c2cccnc2)nc2c(N3CCC(n4c(=O)[nH]c5ccccc54)CC3)ncnc21 [Compound 296, 1-[1-(9-ethyl-8-pyridin-3-yl-9H-purin-6-yl)piperidin-4-yl]-1,3-dihydro-2H-benzimidazol-2-one]	< 0.05 µM
Cn1c(C(=O)NCC2CC2)nc2c(N3CCCC(n4c(=O)[nH]c5ccccc54)C3)ncnc21 (stereo not drawn) [Compound 256, N-(cyclopropylmethyl)-9-methyl-6-[3-(2-oxo-2,3-dihydro-1H-benzimidazol-1-yl)piperidin-1-yl]-9H-purine-8-carboxamide]	0.25 to 0.5 µM
Cn1c(C(=O)NCC2CCCCO2)nc2c(N3CCC4(CC3)C(=O)Nc3ccccc34)ncnc21 (stereo not drawn) [Compound 82, 9-methyl-6-(2-oxo-1,2-dihydro-1′H-spiro[indole-3,4′-piperidin]-1′-yl)-N-(tetrahydro-2H-pyran-2-ylmethyl)-9H-purine-8-carboxamide]	0.5 to 1.5 µM
CCn1c(C(=O)N2CC[C@@H](F)C2)nc2c(N3CCC(n4c(=O)[nH]c5ccccc54)CC3)ncnc21 [Compound 186, 1-[1-(9-ethyl-8-{[(3R)-3-fluoropyrrolidin-1-yl]carbonyl}-9H-purin-6-yl)piperidin-4-yl]-1,3-dihydro-2H-benzimidazol-2-one]	< 0.05 µM
COC(=O)c1nc2c(N3CCC4(CC3)C(=O)Nc3ccccc34)ncnc2n1C [Compound 76, Methyl 9-methyl-6-(2-oxo-1,2-dihydro-1′H-spiro[indole-3,4′-piperidin]-1′-yl)-9H-purine-8-carboxylate]	0.5 to 1.5 µM
CCn1c(-c2nnc(C(C)C)o2)nc2c(N3CCC4(CC3)C(=O)Nc3ccccc34)ncnc21 [Compound 209, 1′-{9-ethyl-8-[5-(1-methylethyl)-1,3,4-oxadiazol-2-yl]-9H-purin-6-yl}spiro[indole-3,4′-piperidin]-2(1H)-one]	< 0.05 µM
CN(C)c1ccc(-c2nc3c(N4CCC(n5c(=O)[nH]c6ncccc65)CC4)ncnc3n2C)cn1 [Compound 365, 1-(1-{8-[6-(dimethylamino)pyridin-3-yl]-9-methyl-9H-purin-6-yl}piperidin-4-yl)-1,3-dihydro-2H-imidazo[4,5-b]pyridin-2-one]	< 0.05 µM
CCn1c(C(=O)NCC(C)C)nc2c(N3CCC(n4c(=O)[nH]c5ccccc54)CC3)ncnc21 [Compound 158, 9-ethyl-N-(2-methylpropyl)-6-[4-(2-oxo-2,3-dihydro-1H-benzimidazol-1-yl)piperidin-1-yl]-9H-purine-8-carboxamide]	< 0.05 µM
CCn1c(-c2cnn(C)c2)nc2c(N3CCC(n4c(=O)[nH]c5ncccc54)CC3)ncnc21 [Compound 323, 1-{1-[9-ethyl-8-(1-methyl-1H-pyrazol-4-yl)-9H-purin-6-yl]piperidin-4-yl}-1,3-dihydro-2H-imidazo[4,5-b]pyridin-2-one]	< 0.05 µM
CC(C)CNC(=O)c1nc2c(N3CCC(n4c(=O)[nH]c5ccccc54)CC3)ncnc2n1CC(F)(F)F [Compound 183, N-(2-methylpropyl)-6-[4-(2-oxo-2,3-dihydro-1H-benzimidazol-1-yl)piperidin-1-yl]-9-(2,2,2-trifluoroethyl)-9H-purine-8-carboxamide]	0.25 to 0.5 µM
CCCCCNC(=O)c1nc2c(N3CCC(n4c(=O)[nH]c5ccccc54)CC3)ncnc2n1C [Compound 70, 9-methyl-6-[4-(2-oxo-2,3-dihydro-1H-benzimidazol-1-yl)piperidin-1-yl]-N-pentyl-9H-purine-8-carboxamide]	0.25 to 0.5 µM
Cn1c(-c2cn[nH]c2)nc2c(N3CCC4(CC3)C(=O)Nc3ccccc34)ncnc21 [Compound 238, 1′-[9-methyl-8-(1H-pyrazol-4-yl)-9H-purin-6-yl]spiro[indole-3,4′-piperidin]-2(1H)-one]	< 0.05 µM
Cn1c(C(=O)NCCCCO)nc2c(N3CCC4(CC3)C(=O)Nc3ccccc34)ncnc21 [Compound 13, N-(4-hydroxybutyl)-9-methyl-6-(2-oxo-1,2-dihydro-1′H-spiro[indole-3,4′-piperidin]-1′-yl)-9H-purine-8-carboxamide]	0.05 to 0.25 µM
CC(C)CNC(=O)c1nc2c(N3CCC4(CC3)C(=O)Nc3ccccc34)ncnc2n1C1CC1 [Compound 176, 9-cyclopropyl-N-(2-methylpropyl)-6-(2-oxo-1,2-dihydro-1′H-spiro[indole-3,4′-piperidin]-1′-yl)-9H-purine-8-carboxamide]	0.05 to 0.25 µM
Cn1c(C(=O)NCc2ccco2)nc2c(N3CCC4(CC3)C(=O)Nc3ccccc34)ncnc21 [Compound 17, N-(furan-2-ylmethyl)-9-methyl-6-(2-oxo-1,2-dihydro-1′H-spiro[indole-3,4′-piperidin]-1′-yl)-9H-purine-8-carboxamide]	0.05 to 0.25 µM
COc1ccc(Cl)cc1S(=O)(=O)N1CCN(c2ncnc3c2nc(-c2cnn(C)c2)n3C)CC1 [Compound 388, 6-(4-{[5-chloro-2-(methyloxy)phenyl]sulfonyl}-piperazin-1-yl)-9-methyl-8-(1-methyl-1H-pyrazol-4-yl)-9H-purine]	0.05 to 0.25 µM

Structure (SMILES)	IC50
Cn1c(C(=O)N2CC(F)(F)C2)nc2c(N3CCC4(CC3)C(=O)Nc3ccccc34)ncnc21 [Compound 103, 1′-{8-[(3,3-difluoroazetidin-1-yl)carbonyl]-9-methyl-9H-purin-6-yl}spiro[indole-3,4′-piperidin]-2(1H)-one]	0.05 to 0.25 µM
C#CCNC(=O)c1nc2c(N3CCC4(CC3)C(=O)Nc3ccccc34)ncnc2n1C [Compound 140, 9-methyl-6-(2-oxo-1,2-dihydro-1′H-spiro[indole-3,4′-piperidin]-1′-yl)-N-prop-2-yn-1-yl-9H-purine-8-carboxamide]	0.05 to 0.25 µM
Cn1c(-c2cnc3[nH]ccc3c2)nc2c(N3CCC(n4c(=O)[nH]c5ccccc54)CC3)ncnc21 [Compound 302, 1-{1-[9-methyl-8-(1H-pyrrolo[2,3-b]pyridin-5-yl)-9H-purin-6-yl]piperidin-4-yl}-1,3-dihydro-2H-benzimidazol-2-one]	< 0.05 µM
Cn1c(-c2cn[nH]c2C(F)(F)F)nc2c(N3CCC(n4c(=O)[nH]c5ccccc54)CC3)ncnc21 [Compound 262, 1-(1-{9-methyl-8-[5-(trifluoromethyl)-1H-pyrazol-4-yl]-9H-purin-6-yl}piperidin-4-yl)-1,3-dihydro-2H-benzimidazol-2-one]	0.05 to 0.25 µM
C=C(C)c1cn(-c2nc3c(N4CCC(n5c(=O)[nH]c6ccccc65)CC4)ncnc3n2C)cn1 [Compound 167, 1-(1-{9-methyl-8-[4-(1-methylethenyl)-1H-imidazol-1-yl]-9H-purin-6-yl}piperidin-4-yl)-1,3-dihydro-2H-benzimidazol-2-one]	< 0.05 µM
CCn1cc(-c2nc3c(N4CCN(S(=O)(=O)c5ccccc5)CC4)ncnc3n2C)cn1 [Compound 367, 8-(1-ethyl-1H-pyrazol-4-yl)-9-methyl-6-[4-(phenylsulfonyl)piperazin-1-yl]-9H-purine]	0.05 to 0.25 µM
CCn1cc(-c2nc3c(N4CCC(n5c(=O)[nH]c6ncccc65)CC4)ncnc3n2CC)cn1 [Compound 325, 1-{1-[9-ethyl-8-(1-ethyl-1H-pyrazol-4-yl)-9H-purin-6-yl]piperidin-4-yl}-1,3-dihydro-2H-imidazo[4,5-b]pyridin-2-one]	< 0.05 µM
Cn1c(C(=O)NC2CCc3ccccc32)nc2c(N3CCC(n4c(=O)[nH]c5ccccc54)CC3)ncnc21 (stereo not drawn) [Compound 47, N-(2,3-dihydro-1H-inden-1-yl)-9-methyl-6-[4-(2-oxo-2,3-dihydro-1H-benzimidazol-1-yl)piperidin-1-yl]-9H-purine-8-carboxamide]	0.05 to 0.25 µM
Cn1c(-c2c[nH]c3ncccc23)nc2c(N3CCC(n4c(=O)[nH]c5ccccc54)CC3)ncnc21 [Compound 301, 1-{1-[9-methyl-8-(1H-pyrrolo[2,3-b]pyridin-3-yl)-9H-purin-6-yl]piperidin-4-yl}-1,3-dihydro-2H-benzimidazol-2-one]	< 0.05 µM
Cn1c(C(=O)NCc2cccs2)nc2c(N3CCC(n4c(=O)[nH]c5ccccc54)CC3)ncnc21 [Compound 49, 9-methyl-6-[4-(2-oxo-2,3-dihydro-1H-benzimidazol-1-yl)piperidin-1-yl]-N-(2-thienylmethyl)-9H-purine-8-carboxamide]	0.05 to 0.25 µM
Cc1nnc(-c2nc3c(N4CCC(n5c(=O)[nH]c6ccccc65)CC4)ncnc3n2C)n1C [Compound 332, 1-{1-[8-(4,5-dimethyl-4H-1,2,4-triazol-3-yl)-9-methyl-9H-purin-6-yl]piperidin-4-yl}-1,3-dihydro-2H-benzimidazol-2-one]	0.05 to 0.25 µM
Cn1cc(-c2nc3c(N4CCC(n5c(=O)[nH]c6cnccc65)CC4)ncnc3n2C)cn1 [Compound 341, 1-{1-[9-methyl-8-(1-methyl-1H-pyrazol-4-yl)-9H-purin-6-yl]piperidin-4-yl}-1,3-dihydro-2H-imidazo[4,5-c]pyridin-2-one]	0.25 to 0.5 µM
Cn1c(C(=O)N2CCC(F)(F)C2)nc2c(N3CCC4(CC3)C(=O)Nc3ccccc34)ncnc21 [Compound 106, 1′-{8-[(3,3-difluoropyrrolidin-1-yl)carbonyl]-9-methyl-9H-purin-6-yl}spiro[indole-3,4′-piperidin]-2(1H)-one]	0.05 to 0.25 µM
Cn1c(C(=O)NCC2CCOCC2)nc2c(N3CCC(n4c(=O)[nH]c5ccccc54)CC3)ncnc21 [Compound 5, 9-methyl-6-[4-(2-oxo-2,3-dihydro-1H-benzimidazol-1-yl)piperidin-1-yl]-N-(tetrahydro-2H-pyran-4-ylmethyl)-9H-purine-8-carboxamide]	< 0.05 µM
CCn1c(C(=O)NC(C)C2CC2)nc2c(N3CCC4(CC3)C(=O)Nc3ccccc34)ncnc21 (stereo not drawn) [Compound 214, N-(1-cyclopropylethyl)-9-ethyl-6-(2-oxo-1,2-dihydro-1′H-spiro[indole-3,4′-piperidin]-1′-yl)-9H-purine-8-carboxamide]	< 0.05 µM
Cc1ncc(-c2nc3c(N4CCC(n5c(=O)[nH]c6ncccc65)CC4)ncnc3n2C)n1C [Compound 336, 1-{1-[8-(1,2-dimethyl-1H-imidazol-5-yl)-9-methyl-9H-purin-6-yl]piperidin-4-yl)-1,3-dihydro-2H-imidazo[4,5-b]pyridin-2-one]	< 0.05 µM
